Measurements as given in patent US20070049564A1 (Wyeth, priority 2005, published 2007).
Converted amounts (≈) assume the structure as drawn. Where two headings read alike, the source gives them in different places.

How the values were obtained:
E. coli = assay: Range of MIC for E. coli strains; conditions: Escherichia coli
E. coli GC 4559 = assay: MIC, broth microdilution; conditions: Escherichia coli, GC4559, E. coli GC 4559
S. aureus GC 6469 = assay: MIC, broth microdilution; conditions: Staphylococcus aureus, GC6469, S. aureus GC 6469
Procedure: (§1) Antimicrobial susceptibility testing. The in vitro activities of the antibiotics are determined by the broth microdilution method as recommended by the National Committee for Clinical Laboratory Standards (NCCLS) (1). Mueller-Hinton II broth (MHBII)(BBL Cockeysville, Md.) is the medium employed in the testing procedures. Microtiter plates containing serial dilutions of each antimicrobial agent are inoculated with each organism to yield the appropriate density (10^5 CFU/ml) in a 100 μl final volume. The plates are incubated for 18-22 hours at 35° C. in ambient air.
Representative compounds were first incubated in mouse serum for an hour prior to the in vitro testing against a panel of selected gram-positive and gram-negative bacteria strains. All compounds were also pre-incubated in water for an hour prior to testing as control.

E. faecalis GC 2265 = assay: MIC, broth microdilution; conditions: Enterococcus faecalis, GC2265, E. faecalis GC 2265
S. pyogenes GC 4563 = assay: MIC, broth microdilution; conditions: Streptococcus pyogenes, GC4563, S. pyogenes GC 4563
S. agalactiae GC 4564 = assay: MIC, broth microdilution; conditions: Streptococcus agalactiae, GC4564, S. agalactiae GC 4564
Procedure: as §1
(§2) Representative compounds were first incubated in mouse serum for an hour prior to the in vitro testing against a panel of selected gram-positive and gram-negative bacteria strains. All compounds were also pre-incubated in water for an hour prior to testing as control. Representative compounds of Formula I were incubated in human serum prior to MIC determination.

S. aureus GC 2216 = assay: MIC, broth microdilution; conditions: Staphylococcus aureus, GC2216, S. aureus GC 2216
E. coli GC 3226 = assay: MIC, broth microdilution; conditions: Escherichia coli, GC3226, E. coli GC 3226
S. pneumoniae+ GC 4465 = assay: MIC, broth microdilution; conditions: Streptococcus pneumoniae, S. pneumoniae+ GC 4465
E. coli GC 2271 = assay: MIC, broth microdilution; conditions: Escherichia coli, GC2271, E. coli GC 2271
E. coli GC 1073 = assay: MIC, broth microdilution; conditions: Escherichia coli, GC1073, E. coli GC 1073
E. faecium GC 2243 = assay: MIC, broth microdilution; conditions: Enterococcus faecium, GC2243, E. faecium GC 2243
E. coli GC 2232 = assay: MIC, broth microdilution; conditions: Escherichia coli, GC2232, E. coli GC 2232
P. aeruginosa GC 2214 = assay: MIC, broth microdilution; conditions: Pseudomonas aeruginosa, GC2214, P. aeruginosa GC 2214
S. aureus GC 4536 = assay: MIC, broth microdilution; conditions: Staphylococcus aureus, GC4536, S. aureus GC 4536
Procedure: as §1, §2

c. albicans GC 3066 = assay: MIC, broth microdilution
E. coli GC 2270 = assay: MIC, broth microdilution; conditions: Escherichia coli, GC2270, E. coli GC 2270
Staph. aureus Smith = assay: In vivo activity (oral, iv; ED50) against Staph. aureus Smith in mice
Procedure: Representative examples of compounds of Formula I were tested for the oral efficacy using S. aureus Smith in mice.

E. faecalis GC 2242 = assay: MIC, broth microdilution; conditions: Enterococcus faecalis, GC2242, E. faecalis GC 2242
S. aureus GC 6335 = assay: MIC, broth microdilution; conditions: Staphylococcus aureus, GC6335, S. aureus GC 6335
[1] = 20 h, read-out: Range of MIC, E. coli (Mouse Serum)
[2] = read-out: Range of MIC, E. coli (mouse serum)
[3] = c. albicans GC 3066, Water pre-incubation
[4] = Staphylococcus aureus, in Mus musculus, po, read-out: ED50 Staph Smith SOD
[5] = iv, read-out: ED50 Staph Smith SIV

CCCN(CC(=O)Nc1cc(N(C)C)c2c(c1O)C(=O)C1=C(O)[C@]3(O)C(=O)C(C(N)=O)=C(O)[C@@H](N(C)C)[C@@H]3C[C@@H]1C2)C(=O)OCOC(=O)C1CCC1 [Example 7, ({[(2-{[(5aR,6aS,7S,10aS)-9-(aminocarbonyl)-4,7-bis(dimethylamino)-1,8,10a,11-tetrahydroxy-10,12-dioxo-5,5a,6,6a,7,10,10a,12-octahydrotetracen-2-yl]amino}-2-oxoethyl)(propyl)amino]carbonyl}oxy)methyl cyclobutanecarboxylate]
MIC (E. coli; [1]): 0.25 to 2 µg/mL (≈ 0.344 to 2.75 µM)
MIC (E. coli; read-out: Range of MIC, E. coli (Water)): 2 to 16 µg/mL (≈ 2.75 to 22 µM)
MIC (E. coli; [2]): 0.25 to 2 µg/mL (≈ 0.344 to 2.75 µM)
MIC (E. coli; read-out: Range of MIC, E. coli (water)): 2 to 16 µg/mL (≈ 2.75 to 22 µM)
MIC (E. coli GC 4559; Mouse Serum pre-incubation): 1 µg/mL (≈ 1.37 µM)
MIC (E. coli GC 4559; Water pre-incubation): 8 µg/mL (≈ 11 µM)
MIC (S. aureus GC 6469; Mouse Serum pre-incubation): 2 µg/mL (≈ 2.75 µM)
MIC (S. aureus GC 6469; Water pre-incubation): 4 µg/mL (≈ 5.5 µM)
MIC (E. faecalis GC 2265; Mouse Serum pre-incubation): 1 µg/mL (≈ 1.37 µM)
MIC (E. faecalis GC 2265; Water pre-incubation): 2 µg/mL (≈ 2.75 µM)
MIC (S. pyogenes GC 4563; Mouse Serum pre-incubation): 0.25 µg/mL (≈ 0.344 µM)
MIC (S. pyogenes GC 4563; Water pre-incubation): 0.25 µg/mL (≈ 0.344 µM)
MIC (S. agalactiae GC 4564; Mouse Serum pre-incubation): 0.25 µg/mL (≈ 0.344 µM)
MIC (S. agalactiae GC 4564; Water pre-incubation): 0.5 µg/mL (≈ 0.687 µM)
MIC (S. aureus GC 2216; Mouse Serum pre-incubation): 0.5 µg/mL (≈ 0.687 µM)
MIC (S. aureus GC 2216; Water pre-incubation): 0.5 µg/mL (≈ 0.687 µM)
MIC (E. coli GC 3226; Mouse Serum pre-incubation): 0.5 µg/mL (≈ 0.687 µM)
MIC (E. coli GC 3226; Water pre-incubation): 8 µg/mL (≈ 11 µM)
MIC (S. pneumoniae+ GC 4465; Mouse Serum pre-incubation): 4 µg/mL (≈ 5.5 µM)
MIC (S. pneumoniae+ GC 4465; Water pre-incubation): 2 µg/mL (≈ 2.75 µM)
MIC (E. coli GC 2271; Mouse Serum pre-incubation): 0.5 µg/mL (≈ 0.687 µM)
MIC (E. coli GC 2271; Water pre-incubation): 4 µg/mL (≈ 5.5 µM)
MIC (E. coli GC 1073; Mouse Serum pre-incubation): 0.5 µg/mL (≈ 0.687 µM)
MIC (E. coli GC 1073; Water pre-incubation): 8 µg/mL (≈ 11 µM)
MIC (E. faecium GC 2243; Mouse Serum pre-incubation): 0.25 µg/mL (≈ 0.344 µM)
MIC (E. faecium GC 2243; Water pre-incubation): 0.12 µg/mL (≈ 0.165 µM)
MIC (E. coli GC 2232; Mouse Serum pre-incubation): 0.5 µg/mL (≈ 0.687 µM)
MIC (E. coli GC 2232; Water pre-incubation): 4 µg/mL (≈ 5.5 µM)
MIC (P. aeruginosa GC 2214; Mouse Serum pre-incubation): 16 µg/mL (≈ 22 µM)
MIC (P. aeruginosa GC 2214; Water pre-incubation): > 64 µg/mL
MIC (S. aureus GC 4536; Mouse Serum pre-incubation): 1 µg/mL (≈ 1.37 µM)
MIC (S. aureus GC 4536; Water pre-incubation): 1 µg/mL (≈ 1.37 µM)
MIC (c. albicans GC 3066; Candida albicans, GC3066): > 64 µg/mL
MIC (c. albicans GC 3066; [3]): >64 UG/ML
MIC (E. coli GC 2270; Mouse Serum pre-incubation): 0.5 µg/mL (≈ 0.687 µM)
MIC (E. coli GC 2270; Water pre-incubation): 4 µg/mL (≈ 5.5 µM)
ED50 (Staph. aureus Smith; [4]): 16.1 mg/kg
ED50 (Staph. aureus Smith; [5]): 0.52 mg/kg
MIC (E. faecalis GC 2242; Mouse Serum pre-incubation): 1 µg/mL (≈ 1.37 µM)
MIC (E. faecalis GC 2242; Water pre-incubation): 1 µg/mL (≈ 1.37 µM)
MIC (S. aureus GC 6335; Mouse Serum pre-incubation): 1 µg/mL (≈ 1.37 µM)
MIC (S. aureus GC 6335; Water pre-incubation): 1 µg/mL (≈ 1.37 µM)

CCCN(CC(=O)Nc1cc(N(C)C)c2c(c1O)C(=O)C1=C(O)[C@]3(O)C(=O)C(C(N)=O)=C(O)[C@@H](N(C)C)[C@@H]3C[C@@H]1C2)C(=O)OCOC(=O)c1ccc(F)cc1 [Example 8, ({[(2-{[(5aR,6aS,7S,10aS)-9-(aminocarbonyl)-4,7-bis(dimethylamino)-1,8,10a,11-tetrahydroxy-10,12-dioxo-5,5a,6,6a,7,10,10a,12-octahydrotetracen-2-yl]amino}-2-oxoethyl)(propyl)amino]carbonyl}oxy)methyl 4-fluorobenzoate]
MIC (E. coli; [1]): 1 to 2 µg/mL (≈ 1.3 to 2.6 µM)
MIC (E. coli; [2]): 1 to 2 µg/mL (≈ 1.3 to 2.6 µM)
MIC (E. coli GC 4559; Mouse Serum pre-incubation): 1 µg/mL (≈ 1.3 µM)
MIC (E. coli GC 4559; Water pre-incubation): 64 µg/mL (≈ 83.4 µM)
MIC (S. aureus GC 6469; Mouse Serum pre-incubation): 2 µg/mL (≈ 2.6 µM)
MIC (S. aureus GC 6469; Water pre-incubation): 8 µg/mL (≈ 10.4 µM)
MIC (E. faecalis GC 2265; Mouse Serum pre-incubation): 2 µg/mL (≈ 2.6 µM)
MIC (E. faecalis GC 2265; Water pre-incubation): 8 µg/mL (≈ 10.4 µM)
MIC (S. pyogenes GC 4563; Mouse Serum pre-incubation): 0.12 µg/mL (≈ 0.156 µM)
MIC (S. pyogenes GC 4563; Water pre-incubation): 0.5 µg/mL (≈ 0.651 µM)
MIC (S. agalactiae GC 4564; Mouse Serum pre-incubation): 0.25 µg/mL (≈ 0.326 µM)
MIC (S. agalactiae GC 4564; Water pre-incubation): 0.5 µg/mL (≈ 0.651 µM)
MIC (S. aureus GC 2216; Mouse Serum pre-incubation): 0.5 µg/mL (≈ 0.651 µM)
MIC (S. aureus GC 2216; Water pre-incubation): 4 µg/mL (≈ 5.21 µM)
MIC (E. coli GC 3226; Mouse Serum pre-incubation): 2 µg/mL (≈ 2.6 µM)
MIC (E. coli GC 3226; Water pre-incubation): 64 µg/mL (≈ 83.4 µM)
MIC (S. pneumoniae+ GC 4465; Mouse Serum pre-incubation): 1 µg/mL (≈ 1.3 µM)
MIC (S. pneumoniae+ GC 4465; Water pre-incubation): 4 µg/mL (≈ 5.21 µM)
MIC (E. coli GC 2271; Mouse Serum pre-incubation): 1 µg/mL (≈ 1.3 µM)
MIC (E. coli GC 2271; Water pre-incubation): 32 µg/mL (≈ 41.7 µM)
MIC (E. coli GC 1073; Mouse Serum pre-incubation): 1 µg/mL (≈ 1.3 µM)
MIC (E. coli GC 1073; Water pre-incubation): 32 µg/mL (≈ 41.7 µM)
MIC (E. faecium GC 2243; Mouse Serum pre-incubation): 0.25 µg/mL (≈ 0.326 µM)
MIC (E. faecium GC 2243; Water pre-incubation): 2 µg/mL (≈ 2.6 µM)
MIC (E. coli GC 2232; Mouse Serum pre-incubation): 1 µg/mL (≈ 1.3 µM)
MIC (E. coli GC 2232; Water pre-incubation): 32 µg/mL (≈ 41.7 µM)
MIC (P. aeruginosa GC 2214; Mouse Serum pre-incubation): 32 µg/mL (≈ 41.7 µM)
MIC (P. aeruginosa GC 2214; Water pre-incubation): > 64 µg/mL
MIC (S. aureus GC 4536; Mouse Serum pre-incubation): 0.5 µg/mL (≈ 0.651 µM)
MIC (S. aureus GC 4536; Water pre-incubation): 2 µg/mL (≈ 2.6 µM)
MIC (c. albicans GC 3066; Candida albicans, GC3066): > 64 µg/mL
MIC (c. albicans GC 3066; [3]): >64 UG/ML
MIC (E. coli GC 2270; Mouse Serum pre-incubation): 1 µg/mL (≈ 1.3 µM)
MIC (E. coli GC 2270; Water pre-incubation): 64 µg/mL (≈ 83.4 µM)
ED50 (Staph. aureus Smith; [4]): 16.6 mg/kg
ED50 (Staph. aureus Smith; [5]): 0.48 mg/kg
MIC (E. faecalis GC 2242; Mouse Serum pre-incubation): 1 µg/mL (≈ 1.3 µM)
MIC (E. faecalis GC 2242; Water pre-incubation): 4 µg/mL (≈ 5.21 µM)
MIC (S. aureus GC 6335; Mouse Serum pre-incubation): 1 µg/mL (≈ 1.3 µM)
MIC (S. aureus GC 6335; Water pre-incubation): 4 µg/mL (≈ 5.21 µM)
